Experimental data published in the supplement of paper PMC8671470.
Structures can show the parent of a compound that is named as a salt. ± gives the standard deviation of the averaged measurements.

Tests used:
Conditions in all cases: 72 h
LAMA-84 = test: cell viability (% survival relative to DMSO control, bortezomib = 0%); higher = less cytotoxic
Method in brief: (§1)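 Fifteen myeloid leukaemia cell lines (10 AML, 5 CML) were seeded at a density titrated to the linear growth range. They went into 384-well plates with compounds pre-printed at 1, 10, 100, 1000 or 10000 nM in duplicate. After 72 h at 37 °C with 5% CO2, viability was read by CellTiter-Glo luminescence. Values are percent survival, with vehicle set to 100% and a 10 µM positive control to 0%, averaged over the duplicates.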

THP-1 = test: as above
Method in brief: as §1

Mono-Mac-6 = test: as above
Method in brief: as §1

KG-1 = test: as above
Method in brief: as §1

ML-2 = test: as above
Method in brief: as §1

MOLM-13 = test: as above
Method in brief: as §1

SHI-1 = test: as above
Method in brief: as §1

K-562 = test: as above
Method in brief: as §1

KCL-22 = test: as above
Method in brief: as §1

KU-812 = test: as above
Method in brief: as §1

BV-173 = test: as above
Method in brief: as §1

NOMO-1 [1] = test: as above
Method in brief: as §1

MV4-11 = test: as above
Method in brief: as §1

HEL = test: as above
Method in brief: as §1

HL-60 [2] = test: as above
Method in brief: as §1

NOMO-1 [3] = tested on: NOMO-1
Method in brief: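 Seeded in RPMI 1640 at densities within the linear growth range, fifteen myeloid leukaemia cell lines were dispensed into 384-well plates with acoustically pre-printed compounds spanning five tenfold doses from 1 to 10,000 nM, in duplicate. The plates were kept for 72 h at 37 °C in 5% CO2 before luminescent ATP viability was measured and normalised to vehicle and to a positive control at 10 µM. Curves were fitted with a four-parameter log-logistic model. The IC50 was taken from those curves.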

HL-60 [4] = test: cell viability (% survival relative to DMSO control); higher = less cytotoxic
Method in brief: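 In 384-well plates, the full library was rescreened in duplicate on HL-60 cells in RPMI 1640 with 10% FBS, at 1–10,000 nM in five tenfold concentrations, for 72 h at 37 °C, 5% CO2. Each run also held DMSO or 100 nM of one of three metabolic inhibitors. Viability was measured by CellTiter-Glo and normalised to DMSO wells and to wells with proteasome inhibitor, present at 10 μM. Any area under the curve comes from four-parameter log-logistic fitting with drc and PharmacoGx.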

CC(C)(Cc1ccccc1)NCC(O)c1ccc(O)c(NS(C)(=O)=O)c1 (stereo unspecified) [Zinterol hydrochloride]
cell viability [%]
Conditions	1 nM	10 nM	100 nM	1000 nM	10000 nM
BV-173	113	93.6	106	87	121
HEL	77.8	101	103	110	93.5
HL-60 [2]	107	113	85	87.7	112
K-562	92.5	107	99.9	107	111
KCL-22	96.1	99.4	98.2	103	95.6
KG-1	118	94.5	99.6	87.9	102
KU-812	113	93.9	106	87.1	97.6
LAMA-84	106	99.1	112	96.6	101
ML-2	95.4	93.3	93	93.9	103
MOLM-13	90.9	86.8	82.3	90.7	98
MV4-11	89.7	79.9	84.5	74.3	88.4
Mono-Mac-6	72.2	51.5	49	48.6	50.1
NOMO-1 [1]	107	107	101	98.6	97.4
SHI-1	111	112	103	110	120
THP-1	109	101	111	103	102

Conditions	IC50 (cell viability) [µM]
NOMO-1 [3]	> 10

cell viability [%], HL-60 [4]
Conditions	0.001 µM	0.01 µM	0.1 µM	1 µM	10 µM
co-treatment: AZD3965 100 nM	99.4 ± 2.4	83.1 ± 24	101 ± 1.7	93.8 ± 2.5	95.4 ± 5.7
co-treatment: DMSO vehicle	99.8 ± 3.6	91.6 ± 15	99.8 ± 4.9	102 ± 5	95.5 ± 1.3
co-treatment: GSK2194069 100 nM	97.9 ± 2.1	100 ± 6	95.1 ± 3.6	101 ± 0.26	94.64 ± 0.55
co-treatment: pictilisib 100 nM	85.5 ± 12	91.4 ± 4.9	86.6 ± 3.3	90.4 ± 7	72.6 ± 7.7
